# Results reported in US5536848A, “Bioactive acetogenins and derivatives” (Purdue Research Foundation, priority 1994, dated 1996).
# “Also recorded” adds a separate entry of the source. Read-outs that look alike come from different tables or passages of the source.
# Tests used:
# rat liver mitochondria = assay: Rat mitochondrial bioassay (RMB), inhibition of oxygen uptake; type: biochemical; settings: for RMB IC50: Table 17, oxygen consumption of rat liver mitochondria, parent and acetal derivative in the same run
# Procedure: (§1) The brine shrimp lethality test (BST), on newly hatched naupleii, was performed in our laboratory as previously described. McLaughlin, Methods in Plant Biochemistry, Vol. 6, Hostettmann, Academic Press, London, pp. 1-33 (1991). Seven day cytotoxicities against human solid tumor cells were measured at the Cell Culture Laboratory, Purdue Cancer Center, for the A-549 lung carcinoma, MCF-7 breast carcinoma, and HT-29 colon adenocarcinoma. The respiratory functions of rat liver mitochondria (RMB) were measured polarographically by determination of their rates of oxygen consumption after the addition of acetogenins or their derivatives.
# The oxidative phosphorylation pathway (or electron transport chain) is responsible for oxidizing NADH to NAD^+ and producing ATP from ADP and phosphate within the mitochondria. There are five enzyme complexes in this pathway: NADH-ubiquinone reductase (complex I), succinate-ubiquinone reductase (complex II), ubiquinone-cytochrome c reductase (complex III), cytochrome c oxidase (complex IV) and the F0 F1 -ATPase complex (complex V). The end point of the oxidative phosphorylation pathway is the reduction of oxygen (O2) to water in the mitochondria (thus, it is also called respiration), coupled with the synthesis of ATP by complex V. State 4 respiration is the oxidation of substrates in the absence of a phosphate acceptor (e.g., ADP). State 3 respiration occurs when a phosphate acceptor is present and oxygen utilization increases. The ratio of State 3 respiration to State 4 respiration is the respiratory control ratio (RCR).
# The process of respiration can be measured by using an oxygen electrode to detect the amount of oxygen present in the assay cell. If respiration is occurring normally, the concentration of oxygen should slowly decrease as it is reduced to water. However, if there is some type of inhibition of oxidative phosphorylation occurring, the oxygen level will no longer decrease at the same rate. This rate of oxygen usage can be visualized by a chart recorder connected to the oxygen electrode. At normal respiration,a decreasing baseline slope will be established. During inhibition, however, the baseline slope should decrease (i.e., the slope will move closer to zero), since the oxygen present is no longer being reduced. In other words, the oxygen concentration in the assay cell is no longer decreasing at the same rate as in normal respiration. Furthermore, inhibition sites at specific complexes can be determined by competitive inhibition studies. This is accomplished by addition of a known inhibitor of, e.g., complex I, followed by the new respiration-inhibiting compound. […] This can be verified by trying inhibitors at other sites and by reversing the order, i.e., adding the new compound and then the known inhibitor.
# The method for isolating rat liver mitochondria essentially followed the published methodology. Ahammadsahib et al., Life Sciences, 53, pgs. 1113-1120 (1993). The isolation buffer used for the isolation of mitochondria from rat liver consisted of 4 mM Tris-HC1, 0.5 mM EDTA, and 250 mM sucrose at a pH of 7.4. The isolation buffer was kept at refrigeration temperature at all times by storing on ice during the whole procedure. The rats were supplied by Sprague-Dawley, were male, and weighed approximately 300-320 grams. They were sacrificed with carbon dioxide, and the livers were removed and immediately placed in the isolation buffer on ice. The livers were then rinsed with several washings of cold buffer, cut into pieces, and homogenized. The homogenates were then centrifuged (Sorvall Superspeed RC2-B, 4° C) for 10 minutes at approximately 2000 rpms; the supernatant was next centrifuged for 20 minutes at approximately 9000 rpms. The pellet was reserved and resuspended in 2 ml of assay buffer with a glass pipet. The assay buffer consisted of 100 mM KC1, 5 mM KH2 PO4, 1 mM EDTA, 5 mM glutamate, 1 mM malate, and 20 mM Tris-HCl at a pH of 7.4 and was stored at room temperature. […]
# [1] = tested on: brine shrimp (Artemia salina Leach); assay: Brine shrimp lethality test (BST); type: in vivo; settings: for LC50: Artemia salina, read-out: BST LC50
# Procedure: (§2) The brine shrimp (Artemia salina Leach) test (BST) was performed as modified to determine LC50 values in μg/ml. Seven-day in vitro cytotoxicity tests against human tumor cell lines were carried out at the Purdue Cancer Center, using standard protocols for A-549 (human lung carcinoma), MCF-7 (human breast carcinoma) and HT-29 (human colon carcinoma) with adriamycin as a positive control. The reported ED50 values in μg/ml (Table 5) were tabulated from the same run in order to facilitate comparison for the SAR's.
# (§3) Bioassays. The brine shrimp (Artemia salina Leach) test (BST) was performed as modified. Zhao et al., Phytochemistry, 33, p. 1065 (1993). Seven-day in vitro cytotoxicity tests against human tumor cell lines were carried out at the Purdue Cancer Center, using standard protocols for A-549 (human lung carcinoma), Gu, Z. M.; Fang, X.-P.; Miesbauer, L. R., Smith, D. L.; and McLaughlin, J. L., 30, 31, and 32-Hydroxybullatacinones: Bioactive Terminally-Hydroxylated Annonaceous Acetogenins from Annona bullata., J. Nat. Prod., 1993, 56, 870-876; MCF-7 (human breast carcinoma) McLaughlin, J. L., Chang, C.-J., and Smith, D. L., Simple Bench-Top Bioassays (Brine Shrimp and Potato Discs) for the Discoveries of Plant Antitumor Compounds: A Review of Recent Progress. In Kinghorn, A. D., Balandrin, J. (Eds): "Human Medicinal Agents from Plants", ACS Symposium Series, Washington, D.C., American Chemical Society, 1993, pp. 112-137; and HT-29 (human colon carcinoma), Mclaughlin, J.L., Chang, C.-J., Smith, D.L., "'Bench-Top' Bioassays for the Discovery of Bioactive Natural Products: An Update", in Rahman, Atta-ur- (Ed): "Studies in Natural Product Chemistry", Vol. 9, Amsterdam, Elsevier, 1991, pp. 383-409, with adriamycin as a positive control. The reported values (Table IV) were tabulated from the same run in order to facilitate comparison for the SAR's.
# (§4) Bioassay. The extracts, fractions, and isolates were routinely evaluated for lethality to brine shrimp larvae (BST). Cytotoxicities against human solid tumor cells were measured at the Purdue Cell Culture Laboratory, Purdue Cancer Center, for the A-549 lung carcinoma, MCF-7 breast carcinoma, and HT-29 colon adenocarcinoma.
# as §1
# [2] = tested on: MCF-7 (human breast carcinoma); assay: Seven-day in vitro cytotoxicity, MCF-7; type: cell-based; settings: MCF7, 168 h
# Procedure: as §2, §3, §4, §1
# [3] = tested on: A-549 (human lung carcinoma); assay: Seven-day in vitro cytotoxicity, A-549; type: cell-based; settings: A549, 168 h
# Procedure: as §2, §3, §4, §1
# [4] = read-out: MCF-7 ED50, Table 17, seven day cytotoxicity, same run
# [5] = Table 17, seven day cytotoxicity, same run, read-out: MCF-7 ED50
# [6] = read-out: MCF-7 LC50, Table 12, same run
Structure (SMILES),RMB IC50 (rat liver mitochondria),"LC50 ([1]; Table 17, same run)","IC50 [2, 5]",other results
CCCCC(O)CCCCCC(O)C1CCC(C2CCC(C(O)CCCCCCCCCCCCC3=CC(C)OC3=O)O2)O1 (stereo not shown) [Compound 2],–,–,–,"mitochondrial inhibition (rat liver mitochondria; rat liver mitochondria, result in words, listed as bullanin (2)): high activity; also recorded: slightly higher potencies than bullatacin; LC50 ([1]; Table 5, brine shrimp larvae): 6 ng/mL"
"CCCCCCCCCCCCCC[C@@H](O)[C@H]1CC[C@@H]([C@@H]2CC[C@@H](CCCCC[C@@H](O)CC3=C[C@H](C)OC3=O)O2)OCO1 [Compound 11, 14,17-formaldehyde acetal derivative]",–,–,–,"IC50 [2, 4]: 461 ng/mL; IC50 ([3]; read-out: A-549 ED50): 0.798 ng/mL"
"CCCCCC[C@H]1CCC[C@@H](C2CCC(C3CCC(C(O)CCCCCCCCCCCCC4=CC(C)OC4=O)O3)O2)OCO1 (stereo partly shown) [Compound 17, 24,28-formaldehyde acetal derivative of squamocin]",421.1 n moles/Lt/mg protein,4.4 ng/mL,695 ng/mL,–
"CCCCCC(O)CCCCC(O)C1CCC(C2CCC(C(O)CCCCCCCCCCCCC3=CC(C)OC3=O)O2)O1 (stereo not shown) [Compound 5, Asiminecin]",–,–,–,"LC50 ([1]; Table 5, brine shrimp larvae): 4.9 ng/mL; IC50 ([3]; read-out: A-549 LC50): 0.000329 ng/mL"
"CCCCCCCCCC[C@@H](O)[C@H]1CC[C@H]([C@H]2CC[C@@H]([C@@H]3CC[C@@H](CCCCCCC[C@@H](O)CC4=C[C@H](C)OC4=O)O3)OCO2)O1 [Compound 21, 16,19-Formaldehyde acetal derivative of bullatanocin]",11.3 n moles/Lt/mg protein,6.5 ng/mL,222 ng/mL,–
"CCCCCCCCCCCCCC[C@@H](O)[C@H](O)CC[C@H](O)[C@@H]1CC[C@@H](CCCCC[C@@H](O)CC2=C[C@H](C)OC2=O)O1 [Compound 10, Gigantetrocin A, reference compound]",287.1 n moles/Lt/mg protein,600 ng/mL,0.355 ng/mL,"IC50 ([3]; Table 17, seven day cytotoxicity, same run, read-out: A-549 ED50): 4.52e-05 ng/mL"
"CCCCCCCCCC[C@H](O)[C@H]1CC[C@H]([C@H]2CC[C@@H]([C@@H]3CC[C@@H](CCCCCCC[C@@H]4CC(CC(C)=O)C(=O)O4)O3)OCO2)O1 (stereo partly drawn) [Compound 27, 16,19-Formaldehyde acetal derivatives of (2,4-cis and trans)-bullatalicinones]",20.5 n moles/Lt/mg protein,38 ng/mL,63.9 ng/mL,–
"CCCCCCCCCCC(O)C1CCC(C2CCC(C(O)CCCCC(O)CCCCCCCC3=CC(C)OC3=O)O2)O1 (stereo not shown) [Compound 3, Asimin]",–,–,–,"BST LC50 ([1]; Table 5, brine shrimp larvae): 4.6 ng/mL"
"C=C(C)[C@H]1Cc2c(ccc3c2O[C@@H]2COc4cc(OC)c(OC)cc4[C@@H]2C3=O)O1 [Rotenone, rotenone, reference compound]",34.8 n moles/Lt/mg protein,–,–,LC50 [1]: 12.3 ng/mL
"CCCCCCC(O)CCCC(O)C1CCC(C2CCC(C(O)CCCCCCCCCCCCC3=CC(C)OC3=O)O2)O1 (stereo not shown) [Compound 4, Asiminacin]",–,–,–,"LC50 ([1]; Table 5, brine shrimp larvae): 5.7 ng/mL"
"CCCCCC[C@H](O)CCC[C@H](O)[C@H]1CC[C@H]([C@H]2CC[C@H]([C@H](O)CCCCCCCCCCCCC3=C[C@H](C)OC3=O)O2)O1 [Compound 16, Squamocin, reference compound]",21.5 n moles/Lt/mg protein,20 ng/mL,–,"IC50 [2, 4]: 30.3 ng/mL"
"CCCCCCCCCCCC[C@@H](O)[C@H]1CC[C@H]([C@H](O)CC[C@H](O)[C@@H]2CC[C@@H](CCCCC[C@@H](O)CC3=C[C@H](C)OC3=O)O2)O1 [Compound 29, Gigantecin]",–,–,–,"LC50 ([1]; Table 12): 34.4 ng/mL; IC50 [2, 6]: 0.1 ng/mL; IC50 ([3]; read-out: A-549 LC50): < 10 ng/mL"
"CCCCCCCCCCCCC(O)C1CCC(C(O)CCC(O)C2CCC(CCCCCC(O)CC3=CC(C)OC3=O)O2)O1 (stereo not drawn) [Compound 22, C-18/21-cis-gigantecin]",–,–,–,LC50 ([1]; Table 12): 249 ng/mL
"CCCCCCCCCC[C@@H](O)[C@H]1CC[C@H]([C@H](O)CC[C@H](O)[C@@H]2CC[C@@H](CCCCCCC[C@@H](O)CC3=C[C@H](C)OC3=O)O2)O1 [Compound 20, Bullatanocin, reference compound]",50.7 n moles/Lt/mg protein,430 ng/mL,24.2 ng/mL,–
"CCCCCC[C@H](O)CCC[C@H](O)[C@H]1CC[C@H]([C@H](O)CC[C@H](O)[C@@H]2CC[C@@H](CCCCCCCCCC3=C[C@H](C)OC3=O)O2)O1 [Compound 13, Squamostatin A, reference compound]",–,2800 ng/mL,–,"IC50 [2, 4]: 0.072 ng/mL; IC50 ([3]; read-out: A-549 ED50): 0.268 ng/mL"
"CCCCCC[C@H](O)CCC[C@H](O)[C@H]1CC[C@H]([C@H]2CC[C@@H]([C@@H]3CC[C@@H](CCCCCCCCCC4=C[C@H](C)OC4=O)O3)OCO2)O1 [Compound 15, 16,19-mono-formaldehyde acetal derivative]",–,7 ng/mL,1090 ng/mL,–
"CCCCCCCCCC[C@H](O)[C@H]1CC[C@H]([C@H]2CC[C@@H]([C@@H]3CC[C@@H](CCCCCCC[C@@H](O)CC4=C[C@H](C)OC4=O)O3)OCO2)O1 [Compound 19, 16,19-Formaldehyde acetal derivative of bullatalicin]",29.8 n moles/Lt/mg protein,49 ng/mL,18.5 ng/mL,–
"CCCCCCCCCCCC/C=C\CCC(O)C(O)CCC(O)C1CCC(CCCCCC(O)CC2=CC(C)OC2=O)O1 (stereo not shown) [Compound 28, Gigantetronenin, reference compound]",–,–,–,"LC50 ([1]; Table 12): 10400 ng/mL; IC50 [2, 6]: 1.49e-05 ng/mL"
